From publication PMC2912835 (Journal of Experimental & Clinical Cancer Research : CR, 2010)

Legend:
Kit D816V mutant = target: T1, Kit D816V mutant (Homo sapiens, UniProt P10721, D816V); test: Cell-based Kit autophosphorylation assay, D816V mutant; conditions: stably transfected CHO cells, up to 3000 nM
T1 construct: human wild-type KIT to yield full-length, mutant constructs; expressed in transfected cells; host or cells: AM-1/D CHO cells, stably transfected
Procedure: (§1) CHO cells stably transfected with wild-type or mutant isoforms of KIT were seeded in a 96-well tissue culture plate at a density of 2 × 10^4 cells per well. For stem cell factor (SCF) characterization experiments, cells were stimulated with serial dilutions of SCF for varying times. […] Cell lines transfected with activating KIT mutants were not stimulated with SCF in IC50 experiments. Cells were washed with phosphate-buffered saline and lysed in RIPA buffer (50 mM Tris, pH 7; 150 mM NaCl, 1% Igepal, 0.5% sodium deoxycholate, 0.1% SDS, 300 μM activated sodium vanadate, 1× protease inhibitor cocktail) for 30 minutes at 4°C with shaking. Cell lysates were added to a 96-well DELFIA microplate (PerkinElmer Inc.) coated with anti-Kit antibody (1 μg per well; AF332, R&D Systems, Inc.; Minneapolis, MN) and incubated for 2 hours. Lysates were then removed and the plate was washed 3 times with DELFIA wash buffer (PerkinElmer Inc.). […] The plate was then washed 3 times with DELFIA wash buffer before 0.01 μg of Eu-N1-labeled anti-mouse antibody (Cat. # AD0124, PerkinElmer Inc.) was added to each well. The plate was again incubated at room temperature for 1 hour and then washed 3 times with DELFIA wash buffer before the signal was detected by adding DELFIA enhancement buffer (PerkinElmer Inc.) to each well.

Kit V560D/V654A mutant = target: T2, Kit V560D/V654A mutant (Homo sapiens, UniProt P10721, V560D/V654A); test: Cell-based Kit autophosphorylation assay, V560D/V654A mutant; conditions: autophosphorylation IC50 […] nM versus […] nM
T2 construct: human wild-type KIT to yield full-length, mutant constructs; expressed in transfected cells; host or cells: AM-1/D CHO cells, stably transfected
Procedure: as §1

[1] = system: Ba/F3 cells stably transfected with KIT Y823D; test: cells; conditions: Mus musculus, BaF3, 24 h, read-out: IC50 of Stably Transfected Ba/F3 Cell Survival
Procedure: (§2) The ability of Kit mutants to act as survival factors was assessed in Kit-dependent Ba/F3 cells. Ba/F3 cells stably transfected with various KIT mutants were seeded in a 96-well tissue culture plate at a density of 5 × 10^3 cells per well. […] Cell viability was assessed by measuring the level of adenosine triphosphate using ATPlite assays (PerkinElmer Life Sciences, Boston, MA). Reconstituted ATPLite 1-step solution was added to each well followed by incubation with shaking for 2 minutes. The plate was read on a Victor Model 1420 multilabel counter (PerkinElmer Inc.) under the luminescence setting.

[2] = system: Ba/F3 cells stably transfected with KIT V560D/V654A; test: cells; conditions: Mus musculus, BaF3, 24 h, read-out: IC50 of Stably Transfected Ba/F3 Cell Survival
Procedure: as §2

[3] = system: Ba/F3 cells stably transfected with KIT Δ552-559; test: cells; conditions: Mus musculus, BaF3, 24 h, read-out: IC50 of Stably Transfected Ba/F3 Cell Survival
Procedure: as §2

[4] = system: Ba/F3 cells stably transfected with KIT AYins503-504; test: cells; conditions: Mus musculus, BaF3, 24 h, read-out: IC50 of Stably Transfected Ba/F3 Cell Survival
Procedure: as §2

[5] = system: Ba/F3 cells stably transfected with KIT V560D; test: cells; conditions: Mus musculus, BaF3, 24 h, read-out: IC50 of Stably Transfected Ba/F3 Cell Survival
Procedure: as §2

[6] = system: Ba/F3 cells stably transfected with KIT V560D/T670I; test: cells; conditions: Mus musculus, BaF3, 24 h, read-out: IC50 of Stably Transfected Ba/F3 Cell Survival
Procedure: as §2

[7] = system: Kit activity (hair depigmentation); test: In vivo hair depigmentation assay (surrogate marker of Kit activity); conditions: female C57B6 mice
Procedure: Female C57B6 mice (6 to 8 weeks old; 20 to 30 g; Charles River Laboratories, Wilmington, MA) were anesthetized, and an area of skin 2 × 2 cm on the right flank was depilated. […] On day 21, photographs were taken for assessment of hair depigmentation. The same patch of skin was depilated again on day 28, and photographs for assessment of depigmentation were taken on day 35. All animal experimental procedures were conducted in accordance with the guidelines of the Amgen Animal Care and Use Committee and the Association for Assessment and Accreditation of Laboratory Animal Care standards.

PDGFR = system: PDGFR; set-up: method as in PMID 16951187; conditions: biochemical assays; read-out: IC50, inhibition of PDGFR activity; cited from earlier work
Kit = system: Kit; set-up: method as in PMID 16951187; conditions: biochemical assays; read-out: IC50, inhibition of Kit activity; cited from earlier work
[8] = system: Kit (hair depigmentation); set-up: method as in PMID 12966161; conditions: mice; cited from earlier work

Structure (SMILES)	Inhibition of autophosphorylation of the D816V mutant (Kit D816V mutant)	Loss of activity, V560D/V654A double mutant compared with V560D alone (Kit V560D/V654A mutant)	IC50 [1]	IC50 [2]	IC50 [3]	IC50 [4]	IC50 [5]	IC50 [6]	Hair depigmentation of regrown hair ([7]; 75 mg/kg oral twice daily for 21 days after depilation, assessed day 21, vs vehicle)	Hair depigmentation of regrown hair after cessation of treatment ([7]; treatment stopped day 21, depilated again day 28, assessed day 35)	IC50 (PDGFR)	IC50 (Kit)	Hair depigmentation [8]
CC1(C)CNc2cc(NC(=O)c3cccnc3NCc3ccncc3)ccc21 [Motesanib]	neither motesanib nor imatinib inhibited	fifteen-fold loss	62 nM	91 nM	0.4 nM	11 nM	3 nM	180 nM	markedly depigmented	no apparent depigmentation	84 nM	[…]	
CCN(CC)CCNC(=O)c1c(C)[nH]c(/C=C2\C(=O)Nc3ccc(F)cc32)c1C [sunitinib]													Depigmentation has previously been observed
